# Measured values: US20250073234A1, “COMBINATION THERAPIES INCLUDING PARP1 INHIBITORS” (Cornell University, priority 2022, published 2025)
# Experiments:
# [1] = system: c-FOS and c-JUN at the AP-1A site of the SQSTM1 promoter; assay: ChIP-PCR of SQSTM1 promoter (AP-1A) occupancy in WPMY-1 cells; type: cell-based, human; conditions: 48 h
# Protocol: WPMY-1 cells were fixed by adding directly to the culture medium formaldehyde (HCHO; from a 37% HCHO-10% methanol stock, Calbiochem) to a final concentration of 1%. […] Chromatin was sheared in a COVARIS S220 Focused-ultrasonicator to yield DNA fragment sizes of 200-1000 base pairs, and diluted 10 times in dilution buffer (20 mM Tris pH 8.0, 2 mM EDTA, 1% triton X-100, 150 mM NaCl and protease inhibitors). Immunoprecipitations were carried out overnight at 4° C. using the following protein A-antibodies complexes: cFOS, FOSB, cJUN, JUNB.
# Immunocomplexes were washed three times with buffer TSEI (20 mM Tris pH 8.0, 2 mM EDTA, 1% triton X-100, 150 mM NaCl, 0.1% SDS and protease inhibitors), three washes with buffer TSEII (20 mM Tris pH 8.0, 2 mM EDTA, 1% triton X-100, 500 mM NaCl, 0.1% SDS and protease inhibitors), one wash with buffer TSEIII (10 mM Tris pH 8.0, 250 mM LiCl, 1 mM EDTA, 1% NP40, 1% Deoxycholate and protease inhibitors) and one wash with TE pH 8.0.
# Immunocomplexes were extracted in TE containing 1% SDS, and protein-DNA cross-links were reverted by heating at 65° C. overnight. DNA was extracted by using a PCR purification kit (Qiagen). One-tenth of the immunoprecipitated DNA was used in each PCR, for which the promoter-specific primers were used.
# [2] = system: p62 (SQSTM1) in WPMY-1 cells; assay: p62/SQSTM1 expression in WPMY-1 stromal fibroblasts (immunoblot, qPCR); type: cell-based, human
# Text: To knock out PARP-1 in WPMY-1 cells, single-guide RNA sequences targeting PARP-1 exon2 were purchased from Synthego and transduced into WPMY-1 cells with recombinant Streptococcus pyogenes Cas9 protein (Truecut Cas9 Protein v2, Thermo), using the Neon Transfection System 1 (Invitrogen) following the manufacturer's protocol and single clones were expanded and screened by protein immunoblotting. To perform AP1-A binding site editing in the SQSTM promoter in WPMY-1 cells, single-guide RNA sequences targeting the human AP1-A binding site (Synthego) was transduced into cells with a Cas9 protein and a single-stranded donor oligonucleotide (ssODN, IDT) using Neon Electroporation System. Single clones were expanded and screened for AP1-A editing by Sanger sequencing. A point mutation to disrupt the API enhancer element in the p62 promoter was introduced by Site Directed Mutagenesis (Stratagene). Knockdown of MCT1, MCT4, FOS, PARP1, PARP2, CD38, ATG5, and SIRT1-7 genes in WPMY-1 cells were achieved by siRNA transfection using Lipofectamine RNAiMAX Transfection Reagent (Invitrogen). Transient overexpression was achieved by transfection using X-tremeGENE HP transfection reagent (Roche). Transfected cells were examined 48 hours after transfection. Establishing stably GFP or RFP expressing cells was achieved by lentivirus-mediated transduction. Lentivirus were produced in HEK293T cells using X-tremeGENE HP transfection reagent (Roche). Virus-containing supernatants were collected 48, 72 and 96 hours after transfection, filtered to eliminate cells, and supplemented with 8 μg/ml polybrene. Cells were infected with three rounds of viral supernatants and selected with puromycin (3 μg/ml). For autophagy or proteasome inhibition, WPMY-1 cells were treated for 12 hours with 100 nM bafilomycin Al or 12 hours with 20 μM of MG132, respectively, or vehicle (DMSO). […] For MCT1 inhibition, WPMY-1 cells were treated for 48 hours with 10 μM of AZD3965. For cJUN inhibition, WPMY-1 cells were treated for 48 hours with 10 μM of SP600125. For calpains and caspases inhibition, WPMY-1 cells were treated for 48 hours with 1-20 μM of Calpeptin (Tocris) or z-VAD-FMK (Tocris), respectively. For protein synthesis inhibition, WPMY-1 cells were treated with 50 μg/ml of cycloheximide (Sigma). Conditioned media (CM) was generated by collecting supernatant on day 3. CM was transferred to a 15 ml BD Falcon tube and centrifuged at 1300 rpm for 10 minutes. The supernatant was sterile filtered using a […] (Millex-GV) with a 10 ml syringe barrel. The samples were stored at […] for future experiments. Fractionation of the CM was achieved using Amicon Ultra centrifugal filters (3KUltracel, Millipore). The supernatant was centrifuged at 4000 rpm for 1 hour. The supernatant fraction that was >3 kDa remained above the filter and that which was <3 kDa passed through to the lower chamber. The >3-kDa fraction was resuspended in DMEM to the pre-filtration volume.
SMILES,recruitment of c-FOS and c-JUN to the AP-1A binding site in the SQSTM1 promoter ([1]; Olaparib 20 μM),"SQSTM1 mRNA levels ([2]; WPMY-1 cells, basal and ADT conditions)","p62 expression (protein, SQSTM1 mRNA) ([2]; WPMY-1 cells, PJ34 24 h, Olaparib 48 h)",recruitment of c-FOS and c-JUN to the AP-1 regulatory site in lactate-treated cells ([1]; added to lactate-treated WPMY-1 cells),"rescue of lactate-induced reduction in p62 ([2]; lactate-treated WPMY-1 cells, 48 h, NAD 150 μM, NR 200 μM)"
O=C(c1cc(Cc2n[nH]c(=O)c3ccccc23)ccc1F)N1CCN(C(=O)C2CC2)CC1 [Olaparib],impaired the recruitment of c-FOS and c-JUN,reduced SQSTM1 mRNA levels,reduced the expression of p62 in a dose-dependent manner,–,–
NC(=O)c1ccc[n+]([C@@H]2O[C@H](COP(=O)([O-])OP(=O)(O)OC[C@H]3O[C@@H](n4cnc5c(N)ncnc54)[C@H](O)[C@@H]3O)[C@@H](O)[C@H]2O)c1 [NAD^+],–,–,–,rescued,completely rescued the lactate-induced reduction in p62
